Measured values published in patent publication US20050107438A1, “Pharmaceutical composition comprising 3-[(2-{[4-(Hexyloxycarbonylaminoiminomethyl) phenylamino]-methyl}-1-methyl-1H-benzimidazol-5-carbonyl)-pyridin-2-yl-amino]-propionic acid ethyl ester or a salt therefore” (Boehringer Ingelheim International GmbH, priority 2003, published 2005).

Assay: Solubility of the compound in water as a function of pH
Type: physicochemical
Description: Therefore, pantoprazole which serves to raise the pH of the stomach was given to the test subjects in one branch of treatment in the clinical trials.

solubility in water (low pH values): dissolves relatively easily | solubility in water (pH levels above 5, definition of the European Pharmacopoeia): virtually insoluble
SMILES: CCCCCCOC(=O)NC(=N)c1ccc(NCc2nc3cc(C(=O)N(CCC(=O)OCC)c4ccccn4)ccc3n2C)cc1 [compound of formula (I), ethyl 3-[(2-{[4-(hexyloxycarbonylaminoiminomethyl)phenylamino]methyl}-1-methyl-1H-benzimidazole-5-carbonyl)pyridin-2-ylamino]propionate]
